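Following 48 hours of exposure in 96-well plates, responses at five concentrations were used to interpolate endpoints linearly. Abbreviation: GI50, concentration required for 50% inhibition of growth.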 Calls of active or inactive are those of the source. Rule as the data show it: active = GI50 up to about 1.1 µM and inactive = higher.
How the values were obtained:
Assay in all cases: NCI anticancer screen, dose series, 48 h
MOLT-4 = test system: MOLT-4
SN12C = test system: SN12C
SK-MEL-28 = test system: SK-MEL-28
SK-OV-3 = test system: SK-OV-3
OVCAR-5 = test system: OVCAR-5
CCRF-CEM = test system: CCRF-CEM
NCI-H460 = test system: NCI-H460
SK-MEL-2 = test system: SK-MEL-2
PC-3 = test system: PC-3
SF-268 = test system: SF-268
HCT-116 = test system: HCT-116
HT-29 = test system: HT-29
A498 = test system: A498
UO-31 = test system: UO-31
CAKI-1 = test system: CAKI-1
HL-60 = test system: HL-60
SF-539 = test system: SF-539
UACC-257 = test system: UACC-257
SF-295 = test system: SF-295
MDA-MB-231 = test system: MDA-MB-231
SW-620 = test system: SW-620
HCT-15 = test system: HCT-15
MCF7 = test system: MCF7
K562 = test system: K562
HOP-62 = test system: HOP-62
MDA-N = test system: MDA-N
EKVX = test system: EKVX
OVCAR-8 = test system: OVCAR-8
T47D = test system: T47D
KM12 = test system: KM12
OVCAR-3 = test system: OVCAR-3
SK-MEL-5 = test system: SK-MEL-5
786-0 = test system: 786-0
ACHN = test system: ACHN
Hs-578T = test system: Hs-578T
SR = test system: SR
HCC 2998 = test system: HCC 2998
COLO 205 = test system: COLO 205
NCI-H23 = test system: NCI-H23
SNB-19 = test system: SNB-19
DU-145 = test system: DU-145
Malme-3M = test system: Malme-3M
NCI/ADR-RES = test system: NCI/ADR-RES
OVCAR-4 = test system: OVCAR-4
U-251 = test system: U-251
TK-10 = test system: TK-10
LOX IMVI = test system: LOX IMVI
A549 = test system: A549
RPMI-8226 = test system: RPMI-8226
SNB-75 = test system: SNB-75
IGROV-1 = test system: IGROV-1
HOP-92 = test system: HOP-92
NCI-H226 = test system: NCI-H226
UACC-62 = test system: UACC-62
M14 = test system: M14
MDA-MB-435 = test system: MDA-MB-435
NCI-H522 = test system: NCI-H522
RXF 393 = test system: RXF 393

## CC1CN=C(N(C(=O)Nc2ccccc2)C2CCCCC2)S1 (stereo not drawn)
MOLT-4
  GI50: 16.7 µM (inactive)
SN12C
  GI50: 16.6 µM (inactive)
SK-MEL-28
  GI50: 12.4 µM (inactive)
SK-OV-3
  GI50: 31.3 µM (inactive)
OVCAR-5
  GI50: 14.7 µM (inactive)
CCRF-CEM
  GI50: 20.7 µM (inactive)
NCI-H460
  GI50: 16.6 µM (inactive)
SK-MEL-2
  GI50: 15.2 µM (inactive)
PC-3
  GI50: 15.5 µM (inactive)
SF-268
  GI50: 17.6 µM (inactive)
HCT-116
  GI50: 16.7 µM (inactive)
HT-29
  GI50: 17 µM (inactive)
A498
  GI50: 14.4 µM (inactive)
UO-31
  GI50: 17.3 µM (inactive)
CAKI-1
  GI50: 12.4 µM (inactive)
HL-60
  GI50: 14.8 µM (inactive)
SF-539
  GI50: 22.4 µM (inactive)
UACC-257
  GI50: 16 µM (inactive)
SF-295
  GI50: 16.7 µM (inactive)
MDA-MB-231
  GI50: 15.4 µM (inactive)
SW-620
  GI50: 14.1 µM (inactive)
HCT-15
  GI50: 14.4 µM
MCF7
  GI50: 16.6 µM (inactive)
K562
  GI50: 22.5 µM (inactive)
HOP-62
  GI50: 41.2 µM (inactive)
MDA-N
  GI50: 15.6 µM (inactive)
EKVX
  GI50: 15.7 µM (inactive)
OVCAR-8
  GI50: 25.9 µM (inactive)
T47D
  GI50: 17.7 µM (inactive)
KM12
  GI50: 16.1 µM (inactive)
OVCAR-3
  GI50: 17.7 µM (inactive)
SK-MEL-5
  GI50: 15.1 µM (inactive)
786-0
  GI50: 17.3 µM (inactive)
ACHN
  GI50: 13.5 µM (inactive)
Hs-578T
  GI50: 20.7 µM (inactive)
SR
  GI50: 15.9 µM (inactive)
HCC 2998
  GI50: 18.3 µM (inactive)
COLO 205
  GI50: 19 µM (inactive)
NCI-H23
  GI50: 16.4 µM (inactive)
SNB-19
  GI50: 29.2 µM (inactive)
DU-145
  GI50: 25.5 µM (inactive)
Malme-3M
  GI50: 16.3 µM (inactive)
NCI/ADR-RES
  GI50: 14.5 µM (inactive)
OVCAR-4
  GI50: 14.5 µM (inactive)
U-251
  GI50: 16.9 µM (inactive)
TK-10
  GI50: 16.7 µM (inactive)
LOX IMVI
  GI50: 13.5 µM (inactive)
A549
  GI50: 16.7 µM (inactive)
RPMI-8226
  GI50: 18.8 µM (inactive)
SNB-75
  GI50: 12.6 µM (inactive)
IGROV-1
  GI50: 17.8 µM (inactive)

## O=C1C(Cl)=C(N2CCN(CCOCCO)CC2)C(=O)c2c(O)ccc(O)c21
MOLT-4
  GI50: 0.0869 µM (active)
OVCAR-5
  GI50: 2.38 µM (inactive)
NCI-H460
  GI50: 3.08 µM (inactive)
HT-29
  GI50: 0.64 µM (active)
HL-60
  GI50: 0.0272 µM (active)
SF-539
  GI50: 1.66 µM (inactive)
HCT-15
  GI50: 0.453 µM
K562
  GI50: 0.104 µM (active)
T47D
  GI50: 0.458 µM (active)
HOP-92
  GI50: 0.422 µM (active)
NCI-H226
  GI50: 1.75 µM (inactive)
Hs-578T
  GI50: 2.1 µM (inactive)
HCC 2998
  GI50: 3.28 µM (inactive)
DU-145
  GI50: 2.65 µM (inactive)
A549
  GI50: 2.77 µM (inactive)
SNB-75
  GI50: 1.77 µM (inactive)

## COC(=O)CCCc1ccc2c(c1)CC1(C2)Cc2cc3c(cc2C1)CCCC3
UACC-62
  GI50: 21.1 µM (inactive)
MOLT-4
  GI50: 11.6 µM (inactive)
SN12C
  GI50: 40.6 µM (inactive)
M14
  GI50: 24.7 µM (inactive)
SK-OV-3
  GI50: > 100 µM (inactive)
OVCAR-5
  GI50: > 100 µM (inactive)
SK-MEL-2
  GI50: 22.6 µM (inactive)
PC-3
  GI50: 36.8 µM (inactive)
HCT-116
  GI50: 3.8 µM (inactive)
HT-29
  GI50: 29.6 µM (inactive)
A498
  GI50: 41.9 µM (inactive)
UO-31
  GI50: 86.7 µM (inactive)
HL-60
  GI50: 12.4 µM (inactive)
SF-539
  GI50: 37.8 µM (inactive)
UACC-257
  GI50: 33.8 µM (inactive)
SF-295
  GI50: 45.7 µM (inactive)
MDA-MB-231
  GI50: > 100 µM (inactive)
HCT-15
  GI50: 14 µM
MCF7
  GI50: 44.6 µM (inactive)
MDA-MB-435
  GI50: 13.9 µM (inactive)
K562
  GI50: 22.9 µM (inactive)
HOP-62
  GI50: 34.8 µM (inactive)
MDA-N
  GI50: 16.8 µM (inactive)
EKVX
  GI50: 35.2 µM (inactive)
OVCAR-8
  GI50: 44.5 µM (inactive)
T47D
  GI50: 50.7 µM (inactive)
KM12
  GI50: 36.9 µM (inactive)
OVCAR-3
  GI50: 27.5 µM (inactive)
HOP-92
  GI50: 26.1 µM (inactive)
SK-MEL-5
  GI50: 19.2 µM (inactive)
NCI-H226
  GI50: 38.1 µM (inactive)
786-0
  GI50: 43.9 µM (inactive)
ACHN
  GI50: 42.7 µM (inactive)
Hs-578T
  GI50: 29.9 µM (inactive)
SR
  GI50: < 0.01 µM (active)
HCC 2998
  GI50: 26.7 µM (inactive)
COLO 205
  GI50: 20.5 µM (inactive)
NCI-H522
  GI50: 17.7 µM (inactive)
NCI-H23
  GI50: 61.9 µM (inactive)
Malme-3M
  GI50: 37.6 µM (inactive)
NCI/ADR-RES
  GI50: 47.6 µM (inactive)
OVCAR-4
  GI50: 42.5 µM (inactive)
U-251
  GI50: 40.5 µM (inactive)
TK-10
  GI50: > 100 µM (inactive)
RXF 393
  GI50: 24.7 µM (inactive)
LOX IMVI
  GI50: 30.3 µM (inactive)
A549
  GI50: 22.1 µM (inactive)
RPMI-8226
  GI50: 16 µM (inactive)
IGROV-1
  GI50: 44.9 µM (inactive)

## CCCCCOP(=O)(OCCCCC)C(NC(C)=O)(C(=O)OCC)C(F)(F)F (stereo not drawn)
UACC-62
  GI50: > 100 µM (inactive)
MOLT-4
  GI50: > 100 µM (inactive)
SN12C
  GI50: > 100 µM (inactive)
M14
  GI50: > 100 µM (inactive)
SK-MEL-28
  GI50: > 100 µM (inactive)
SK-OV-3
  GI50: > 100 µM (inactive)
CCRF-CEM
  GI50: > 100 µM (inactive)
SF-268
  GI50: > 100 µM (inactive)
HCT-116
  GI50: > 100 µM (inactive)
HT-29
  GI50: > 100 µM (inactive)
A498
  GI50: > 100 µM (inactive)
UO-31
  GI50: > 100 µM (inactive)
HL-60
  GI50: > 100 µM (inactive)
SF-539
  GI50: > 100 µM (inactive)
MDA-MB-231
  GI50: > 100 µM (inactive)
HCT-15
  GI50: > 100 µM
MCF7
  GI50: > 100 µM (inactive)
MDA-MB-435
  GI50: > 100 µM (inactive)
K562
  GI50: > 100 µM (inactive)
HOP-62
  GI50: > 100 µM (inactive)
MDA-N
  GI50: > 100 µM (inactive)
EKVX
  GI50: > 100 µM (inactive)
T47D
  GI50: > 100 µM (inactive)
ACHN
  GI50: > 100 µM (inactive)
SR
  GI50: > 100 µM (inactive)
HCC 2998
  GI50: > 100 µM (inactive)
NCI-H522
  GI50: > 100 µM (inactive)
DU-145
  GI50: > 100 µM (inactive)
Malme-3M
  GI50: > 100 µM (inactive)
U-251
  GI50: > 100 µM (inactive)
RPMI-8226
  GI50: > 100 µM (inactive)
SNB-75
  GI50: > 100 µM (inactive)
